Test results as given in ChEMBL document CHEMBL1201862, “PubChem BioAssay data set” (2004).
Values belong to the molecule of their own block, whether it stands above or below them. The source made the active and inactive calls.

How the values were obtained:
[1] = growth suppression of beta-catenin-knockout colon cells, dose response, cell-based, HCT116, human colon tumor (AID 1045); format: functional;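 further: HCT116 colon tumor cells with beta catenin knocked out; cells exposed to compound for 60 hours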
[2] = biological target: T1, Sentrin-specific protease 8 (Homo sapiens, UniProt Q96LD8); format: functional;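 further: luminescence read-out of SENP8 inhibition, dose-response confirmation following an ultra-high-throughput screen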
T1 sequence (Q96LD8 whole entry): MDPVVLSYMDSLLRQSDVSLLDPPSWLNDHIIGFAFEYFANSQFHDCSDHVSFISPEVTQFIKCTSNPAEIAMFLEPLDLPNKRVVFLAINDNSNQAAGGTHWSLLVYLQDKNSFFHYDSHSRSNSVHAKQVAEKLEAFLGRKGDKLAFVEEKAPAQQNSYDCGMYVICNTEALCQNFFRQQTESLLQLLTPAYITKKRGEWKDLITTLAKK

[3] = biological target: T2, Histone-lysine N-methyltransferase NSD2 (Homo sapiens, UniProt O96028); format: biochemical
T2 sequence (O96028 whole entry): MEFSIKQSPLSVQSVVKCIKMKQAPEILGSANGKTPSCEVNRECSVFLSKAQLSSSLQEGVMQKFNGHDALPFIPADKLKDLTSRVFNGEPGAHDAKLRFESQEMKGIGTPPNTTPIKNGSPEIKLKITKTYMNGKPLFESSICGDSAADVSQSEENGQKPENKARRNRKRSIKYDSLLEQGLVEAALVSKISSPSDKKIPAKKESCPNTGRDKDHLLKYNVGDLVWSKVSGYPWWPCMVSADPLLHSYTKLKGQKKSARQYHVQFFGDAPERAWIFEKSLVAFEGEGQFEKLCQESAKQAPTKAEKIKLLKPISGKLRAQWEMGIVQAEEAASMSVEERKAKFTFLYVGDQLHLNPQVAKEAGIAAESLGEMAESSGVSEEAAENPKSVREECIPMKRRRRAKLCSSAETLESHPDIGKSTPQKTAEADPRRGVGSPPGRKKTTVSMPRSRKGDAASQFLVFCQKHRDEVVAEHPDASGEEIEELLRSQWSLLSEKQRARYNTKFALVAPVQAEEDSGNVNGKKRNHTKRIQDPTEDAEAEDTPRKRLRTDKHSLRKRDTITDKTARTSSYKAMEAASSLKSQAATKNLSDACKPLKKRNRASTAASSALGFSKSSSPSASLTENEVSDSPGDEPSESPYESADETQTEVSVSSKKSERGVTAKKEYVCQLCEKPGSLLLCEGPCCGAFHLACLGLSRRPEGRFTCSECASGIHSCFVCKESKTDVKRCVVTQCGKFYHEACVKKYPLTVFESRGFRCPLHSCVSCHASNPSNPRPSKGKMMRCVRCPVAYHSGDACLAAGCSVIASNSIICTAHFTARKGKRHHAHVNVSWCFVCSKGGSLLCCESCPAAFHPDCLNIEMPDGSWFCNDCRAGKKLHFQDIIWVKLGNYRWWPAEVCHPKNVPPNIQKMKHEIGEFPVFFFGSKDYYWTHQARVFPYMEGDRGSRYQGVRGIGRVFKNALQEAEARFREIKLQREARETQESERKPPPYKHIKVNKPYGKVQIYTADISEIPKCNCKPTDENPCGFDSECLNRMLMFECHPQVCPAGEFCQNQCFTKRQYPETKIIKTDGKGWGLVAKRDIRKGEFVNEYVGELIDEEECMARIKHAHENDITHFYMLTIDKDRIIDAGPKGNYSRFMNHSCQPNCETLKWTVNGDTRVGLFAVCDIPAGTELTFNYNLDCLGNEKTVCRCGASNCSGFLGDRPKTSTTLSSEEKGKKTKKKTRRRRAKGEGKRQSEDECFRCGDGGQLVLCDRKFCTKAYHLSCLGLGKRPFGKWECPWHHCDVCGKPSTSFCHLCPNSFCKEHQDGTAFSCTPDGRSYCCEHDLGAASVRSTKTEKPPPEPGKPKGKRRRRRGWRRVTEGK

[4] = biological target: Cyclin-dependent kinase 2 (Homo sapiens, UniProt P24941); format: functional;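 further: CDK2 measured as one member of a broad kinome profiling panel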
[5] = biological target: Tyrosine-protein kinase JAK3 (Homo sapiens, UniProt P52333); format: functional
[6] = biological target: High affinity nerve growth factor receptor (Homo sapiens, UniProt P04629); format: functional;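 further: NTRK1 tested as one member of a kinome-wide profiling panel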
[7] = biological target: Hepatocyte growth factor receptor (Homo sapiens, UniProt P08581); format: functional;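 further: kinase panel profiling across the kinome, with MET as the panel member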
Aurora kinase B = Aurora kinase B (Homo sapiens, UniProt Q96GD4); format: functional
[8] = biological target: BDNF/NT-3 growth factors receptor (Homo sapiens, UniProt Q16620); format: functional;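 further: NTRK2 measured as one member of a broad kinome-wide kinase profiling panel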
[9] = biological target: Receptor tyrosine-protein kinase erbB-4 (Homo sapiens, UniProt Q15303); format: functional;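 further: ERBB4 member of a kinome-wide kinase profiling panel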
[10] = biological target: Small ubiquitin-related modifier 1 (Homo sapiens, UniProt P63165); test: inhibitors of SUMO1 peptide binding, dose response, biochemical, fluorescence polarization, uHTS hits (AID 624382); format: functional; conditions: read-out: IC50_Mean
Small ubiquitin-related modifier 1, sequence (P63165 whole entry): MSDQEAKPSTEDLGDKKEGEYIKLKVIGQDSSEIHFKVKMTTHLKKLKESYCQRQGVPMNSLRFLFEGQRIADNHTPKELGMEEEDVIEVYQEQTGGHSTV

Hepatocyte growth factor receptor, sequence (P08581 whole entry): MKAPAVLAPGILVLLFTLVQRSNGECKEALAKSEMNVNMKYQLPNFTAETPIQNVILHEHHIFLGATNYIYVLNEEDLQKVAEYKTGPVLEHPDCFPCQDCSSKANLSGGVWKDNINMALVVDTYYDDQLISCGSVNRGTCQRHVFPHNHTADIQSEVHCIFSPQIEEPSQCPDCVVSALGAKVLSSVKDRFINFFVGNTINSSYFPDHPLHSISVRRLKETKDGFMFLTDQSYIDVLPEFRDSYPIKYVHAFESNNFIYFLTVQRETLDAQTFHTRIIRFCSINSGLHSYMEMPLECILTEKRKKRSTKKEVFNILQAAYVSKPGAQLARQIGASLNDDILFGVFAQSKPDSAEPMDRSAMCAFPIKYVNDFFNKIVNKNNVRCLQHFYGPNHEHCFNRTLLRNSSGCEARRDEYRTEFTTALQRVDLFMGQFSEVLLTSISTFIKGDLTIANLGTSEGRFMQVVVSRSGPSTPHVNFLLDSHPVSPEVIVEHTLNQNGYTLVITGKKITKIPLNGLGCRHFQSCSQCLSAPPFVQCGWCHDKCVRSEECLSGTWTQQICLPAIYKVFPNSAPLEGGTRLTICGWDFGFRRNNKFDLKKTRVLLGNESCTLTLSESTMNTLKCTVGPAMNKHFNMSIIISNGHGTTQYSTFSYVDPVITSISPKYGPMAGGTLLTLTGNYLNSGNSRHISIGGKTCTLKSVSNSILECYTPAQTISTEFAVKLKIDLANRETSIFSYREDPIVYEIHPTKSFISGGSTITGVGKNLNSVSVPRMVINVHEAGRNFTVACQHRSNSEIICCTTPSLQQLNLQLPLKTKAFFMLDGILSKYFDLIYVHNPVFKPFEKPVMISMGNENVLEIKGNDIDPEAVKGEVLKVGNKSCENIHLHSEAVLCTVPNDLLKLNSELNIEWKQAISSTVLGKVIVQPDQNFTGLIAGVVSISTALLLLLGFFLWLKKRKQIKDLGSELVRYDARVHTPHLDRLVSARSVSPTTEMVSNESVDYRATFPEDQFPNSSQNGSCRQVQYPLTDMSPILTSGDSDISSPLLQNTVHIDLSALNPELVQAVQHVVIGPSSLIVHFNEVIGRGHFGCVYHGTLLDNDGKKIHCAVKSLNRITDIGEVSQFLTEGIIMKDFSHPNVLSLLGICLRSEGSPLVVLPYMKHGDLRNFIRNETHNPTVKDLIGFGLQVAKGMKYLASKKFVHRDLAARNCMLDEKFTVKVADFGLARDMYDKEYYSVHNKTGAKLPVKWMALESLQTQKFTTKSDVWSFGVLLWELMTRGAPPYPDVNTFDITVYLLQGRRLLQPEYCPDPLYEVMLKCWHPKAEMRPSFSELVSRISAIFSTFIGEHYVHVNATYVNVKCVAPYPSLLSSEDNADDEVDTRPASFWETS
Aurora kinase B, sequence (Q96GD4 whole entry): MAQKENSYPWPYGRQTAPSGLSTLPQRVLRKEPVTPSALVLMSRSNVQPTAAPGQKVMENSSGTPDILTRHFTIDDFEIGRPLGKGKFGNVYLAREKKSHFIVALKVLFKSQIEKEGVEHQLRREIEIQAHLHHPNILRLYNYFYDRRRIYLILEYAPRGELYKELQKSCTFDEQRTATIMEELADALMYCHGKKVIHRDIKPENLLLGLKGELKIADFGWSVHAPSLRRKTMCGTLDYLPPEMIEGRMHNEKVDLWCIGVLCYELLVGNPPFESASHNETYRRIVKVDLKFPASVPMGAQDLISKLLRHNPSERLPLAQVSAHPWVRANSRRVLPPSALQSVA
High affinity nerve growth factor receptor, sequence (P04629 whole entry): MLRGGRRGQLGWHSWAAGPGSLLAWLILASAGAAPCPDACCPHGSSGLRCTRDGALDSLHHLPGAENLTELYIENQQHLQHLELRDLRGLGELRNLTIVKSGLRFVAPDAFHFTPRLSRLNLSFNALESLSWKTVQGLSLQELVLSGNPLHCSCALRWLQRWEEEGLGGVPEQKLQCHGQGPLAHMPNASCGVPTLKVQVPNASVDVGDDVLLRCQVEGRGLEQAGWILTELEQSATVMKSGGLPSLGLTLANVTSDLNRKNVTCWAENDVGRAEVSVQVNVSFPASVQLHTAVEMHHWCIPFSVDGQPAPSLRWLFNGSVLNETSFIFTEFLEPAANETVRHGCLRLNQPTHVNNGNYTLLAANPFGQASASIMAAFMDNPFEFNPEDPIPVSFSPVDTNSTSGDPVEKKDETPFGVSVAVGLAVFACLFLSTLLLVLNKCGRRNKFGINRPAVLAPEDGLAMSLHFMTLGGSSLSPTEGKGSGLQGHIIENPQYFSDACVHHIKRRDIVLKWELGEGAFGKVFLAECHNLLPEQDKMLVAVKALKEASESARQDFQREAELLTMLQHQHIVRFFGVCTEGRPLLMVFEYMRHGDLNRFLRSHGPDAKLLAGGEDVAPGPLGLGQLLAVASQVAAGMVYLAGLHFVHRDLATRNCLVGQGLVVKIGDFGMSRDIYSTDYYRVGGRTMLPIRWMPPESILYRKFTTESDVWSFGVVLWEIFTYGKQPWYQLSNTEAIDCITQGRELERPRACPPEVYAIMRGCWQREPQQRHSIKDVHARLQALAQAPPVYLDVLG
Tyrosine-protein kinase JAK3, sequence (P52333 whole entry): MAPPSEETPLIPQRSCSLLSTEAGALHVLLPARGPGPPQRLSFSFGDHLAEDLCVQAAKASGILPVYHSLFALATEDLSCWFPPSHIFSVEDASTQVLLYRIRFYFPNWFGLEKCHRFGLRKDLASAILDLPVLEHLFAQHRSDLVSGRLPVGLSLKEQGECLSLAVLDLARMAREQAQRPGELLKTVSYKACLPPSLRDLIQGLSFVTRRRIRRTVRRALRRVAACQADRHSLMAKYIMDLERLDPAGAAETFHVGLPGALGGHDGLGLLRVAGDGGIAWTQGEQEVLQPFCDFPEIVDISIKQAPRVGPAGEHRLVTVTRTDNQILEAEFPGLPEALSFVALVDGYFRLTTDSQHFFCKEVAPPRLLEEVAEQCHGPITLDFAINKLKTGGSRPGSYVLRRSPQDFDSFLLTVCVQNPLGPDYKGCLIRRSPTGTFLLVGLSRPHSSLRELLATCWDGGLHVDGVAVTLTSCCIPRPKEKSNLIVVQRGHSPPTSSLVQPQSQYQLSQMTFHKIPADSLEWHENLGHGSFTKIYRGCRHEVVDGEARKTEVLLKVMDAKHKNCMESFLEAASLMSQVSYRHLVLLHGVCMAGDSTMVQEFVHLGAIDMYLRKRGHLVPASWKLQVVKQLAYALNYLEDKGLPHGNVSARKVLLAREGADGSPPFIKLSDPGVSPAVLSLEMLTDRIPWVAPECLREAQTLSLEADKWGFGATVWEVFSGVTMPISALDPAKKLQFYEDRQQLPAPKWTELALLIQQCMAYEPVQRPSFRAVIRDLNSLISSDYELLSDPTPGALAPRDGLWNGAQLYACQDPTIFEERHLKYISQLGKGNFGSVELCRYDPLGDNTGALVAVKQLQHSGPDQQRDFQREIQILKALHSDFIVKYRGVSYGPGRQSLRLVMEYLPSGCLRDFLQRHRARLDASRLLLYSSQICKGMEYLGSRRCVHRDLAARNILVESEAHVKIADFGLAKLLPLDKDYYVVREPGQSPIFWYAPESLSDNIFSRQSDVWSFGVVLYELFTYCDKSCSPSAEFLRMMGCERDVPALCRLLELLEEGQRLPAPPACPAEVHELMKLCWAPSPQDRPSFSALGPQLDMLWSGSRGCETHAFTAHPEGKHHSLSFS
BDNF/NT-3 growth factors receptor, sequence (Q16620 whole entry): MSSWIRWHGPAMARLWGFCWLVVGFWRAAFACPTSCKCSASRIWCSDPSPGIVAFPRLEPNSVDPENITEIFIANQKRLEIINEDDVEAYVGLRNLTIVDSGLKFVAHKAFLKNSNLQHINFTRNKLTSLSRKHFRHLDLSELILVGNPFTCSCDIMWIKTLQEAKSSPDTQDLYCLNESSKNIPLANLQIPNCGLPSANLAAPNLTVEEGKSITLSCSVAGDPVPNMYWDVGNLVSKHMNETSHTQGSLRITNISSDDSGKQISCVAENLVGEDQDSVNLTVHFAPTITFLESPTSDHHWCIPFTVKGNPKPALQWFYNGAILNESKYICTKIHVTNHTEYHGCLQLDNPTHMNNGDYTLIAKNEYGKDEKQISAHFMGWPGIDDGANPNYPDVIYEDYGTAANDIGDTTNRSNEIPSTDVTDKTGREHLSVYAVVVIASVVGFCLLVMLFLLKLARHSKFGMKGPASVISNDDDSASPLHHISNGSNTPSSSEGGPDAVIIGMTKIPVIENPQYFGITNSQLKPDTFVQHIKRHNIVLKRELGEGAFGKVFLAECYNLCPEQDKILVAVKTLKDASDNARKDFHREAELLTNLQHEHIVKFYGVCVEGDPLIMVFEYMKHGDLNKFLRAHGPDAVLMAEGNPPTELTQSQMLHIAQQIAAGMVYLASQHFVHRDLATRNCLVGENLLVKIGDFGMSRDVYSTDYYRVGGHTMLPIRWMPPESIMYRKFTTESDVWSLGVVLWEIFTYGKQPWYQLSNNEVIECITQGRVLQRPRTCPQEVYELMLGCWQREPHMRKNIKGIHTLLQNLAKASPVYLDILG

SMILES: CCC(C)NC(=O)c1c(N)n(CCCOC)c2nc3ccccc3nc12 (stereo unspecified)
- EC50 [1]: 34.1 µM (active)
- IC50 [2]: 2.06 µM (active)
- AC50 [3]: 4.25 µM (active)

- Ki [4]: 0.501 µM (active)
- Ki [5]: 1 µM (active)
- Ki [6]: > 2.51 µM (inactive)
- Ki [7]: 2.51 µM (active)
- Ki (Aurora kinase B): 1.26 µM (active)
- Ki [8]: > 5.01 µM (inactive)
- Ki [9]: > 3.98 µM (inactive)
SMILES: CC(=NNC(=N)N)c1cc(NC(=O)NCCCCCCNC(=O)Nc2cc(C(C)=NNC(=N)N)cc(C(C)=NNC(=N)N)c2)cc(C(C)=NNC(=N)N)c1

SMILES: Cc1cc(N)c2cc(NC(=O)/C=C/c3ccccc3Cl)ccc2n1
- IC50 [10]: > 66.6 µM (inactive)
